# Assay results: patent publication US20100056596A1, “RESISTANCE-REPELLENT RETROVIRAL PROTEASE INHIBITORS” (Sequoia Pharmaceuticals, priority 2004, published 2010)
# Columns and labels:
# wild type HIV-1 protease = molecular target: T1, wild type HIV-1 protease (Human immunodeficiency virus type 1 group M subtype B, UniProt P04585); test: Ki against wild type (WT) HIV-1 protease; type: biochemical; details: wild type HIV-1 protease
# T1 construct: over 45 of the 99 amino acids of the HIV protease monomer
# HIV-1 protease Mutant 8 = HIV-1 protease Mutant 8 (Human immunodeficiency virus type 1, UniProt P04585); test: Ki against HIV-1 protease Mutant 8; type: biochemical; details: HIV-1 protease Mutant 8
# HIV-1 protease Mutant 9 = HIV-1 protease Mutant 9 (Human immunodeficiency virus type 1, UniProt P04585); test: Ki against HIV-1 protease Mutant 9; type: biochemical; details: HIV-1 protease Mutant 9
# HIV-1 isolates, WT = test: In vitro drug sensitivity of HIV-1 laboratory isolates, WT; type: cell-based; details: Human immunodeficiency virus 1; HIV-1 isolate WT
# Procedure: (§1) In Vitro Drug Sensitivity of HIV-1 Laboratory Isolates to PIs
# (§2) The sensitivities of HIV-1 isolates against compounds of the invention were determined as previously described with minor modifications (Shiraska et al., Proc. Natl. Acad. Sci. USA, 92, 2398-2402 (1995)).
# HIV-1 isolates, Mutant 8 = test: In vitro drug sensitivity of HIV-1 laboratory isolates, Mutant 8; type: cell-based; details: Human immunodeficiency virus 1, read-out: IC50 Mutant 8
# Procedure: as §1, §2
# HIV-1 isolates, Mutant 9 = test: In vitro drug sensitivity of HIV-1 laboratory isolates, Mutant 9; type: cell-based; details: Human immunodeficiency virus 1, read-out: IC50 Mutant 9
# Procedure: as §1, §2
Structure (SMILES),Ki (wild type HIV-1 protease),Ki (HIV-1 protease Mutant 8),Ki (HIV-1 protease Mutant 9),"IC50 (HIV-1 isolates, WT)","IC50 (HIV-1 isolates, Mutant 8)","IC50 (HIV-1 isolates, Mutant 9)"
CC(C)CN(CC(O)C(Cc1ccccc1)NC(=O)OC1COC2OCCC12)S(=O)(=O)c1ccc2onc(CNCC(F)(F)F)c2c1 (stereo not drawn) [Compound 229],< 0.1 nM,< 0.3 nM,0.46 nM,2.2 nM,3.1 nM,21 nM
CC(C)CN(CC(O)C(Cc1ccccc1)NC(=O)OC1COC2OCCC12)S(=O)(=O)c1ccc2onc(CNCCOc3ccccc3)c2c1 (stereo not drawn) [Compound 230],< 0.1 nM,< 0.3 nM,0.14 nM,4.8 nM,20 nM,57 nM
CCCCNCc1noc2ccc(S(=O)(=O)N(CC(C)C)CC(O)C(Cc3ccccc3)NC(=O)OC3COC4OCCC34)cc12 (stereo not drawn) [Compound 231],< 0.1 nM,< 0.3 nM,0.29 nM,4.3 nM,23 nM,60 nM
CC(C)CN(CC(O)C(Cc1ccccc1)NC(=O)OC1COC2OCCC12)S(=O)(=O)c1ccc2onc(CNCc3ccccc3)c2c1 (stereo not drawn) [Compound 232],< 0.1 nM,< 0.3 nM,0.11 nM,7 nM,55 nM,80 nM
CC(C)CN(CC(O)C(Cc1ccccc1)NC(=O)OC1COC2OCCC12)S(=O)(=O)c1ccc2onc(CSCC(F)(F)F)c2c1 (stereo not drawn) [Compound 233],< 0.1 nM,< 0.3 nM,3.4 nM,4 nM,36 nM,> 400 nM
CC(C)CN(CC(O)C(Cc1ccccc1)NC(=O)OC1COC2OCCC12)S(=O)(=O)c1ccc2onc(CNC(=O)C(F)(F)F)c2c1 (stereo not drawn) [Compound 234],< 0.1 nM,< 0.3 nM,0.36 nM,16 nM,23 nM,85 nM
CC(C)CN(CC(O)C(Cc1ccccc1)NC(=O)OC1COC2OCCC12)S(=O)(=O)c1ccc2onc(CNC3CCCC3)c2c1 (stereo not drawn) [Compound 235],< 0.1 nM,< 0.3 nM,0.43 nM,4.2 nM,15 nM,120 nM
CC(C)CN(CC(O)C(Cc1ccccc1)NC(=O)OC1COC2OCCC12)S(=O)(=O)c1ccc2onc(CNCCNC(=O)OC(C)(C)C)c2c1 (stereo not drawn) [Compound 236],< 0.1 nM,< 0.3 nM,0.34 nM,6 nM,18 nM,160 nM
CC(C)CN(CC(O)C(Cc1ccccc1)NC(=O)OC1COC2OCCC12)S(=O)(=O)c1ccc2onc(CNCCCN3CCCC3=O)c2c1 (stereo not drawn) [Compound 237],< 0.1 nM,< 0.3 nM,0.27 nM,31 nM,41 nM,85 nM
CC(C)CN(CC(O)C(Cc1ccccc1)NC(=O)OC1COC2OCCC12)S(=O)(=O)c1ccc2onc(CNCC3CCCCC3)c2c1 (stereo not drawn) [Compound 238],< 0.1 nM,< 0.3 nM,< 0.1 nM,7.5 nM,35 nM,55 nM
CC(C)CN(CC(O)C(Cc1ccccc1)NC(=O)OC1COC2OCCC12)S(=O)(=O)c1ccc2onc(CN3CCOCC3)c2c1 (stereo not drawn) [Compound 239],< 0.1 nM,< 0.3 nM,3.7 nM,3 nM,25 nM,> 400 nM
CC(C)CN(CC(O)C(Cc1ccccc1)NC(=O)OC1COC2OCCC12)S(=O)(=O)c1ccc2onc(CNC(=O)c3ccco3)c2c1 (stereo not drawn) [Compound 240],< 0.1 nM,< 0.3 nM,0.26 nM,6.5 nM,11 nM,20 nM
CC(C)CN(CC(O)C(Cc1ccccc1)NC(=O)OC1COC2OCCC12)S(=O)(=O)c1ccc2onc(CNCc3ccccn3)c2c1 (stereo not drawn) [Compound 241],0.1 nM,< 0.3 nM,0.16 nM,8 nM,17 nM,27 nM
Cc1nc(CNCc2noc3ccc(S(=O)(=O)N(CC(C)C)CC(O)C(Cc4ccccc4)NC(=O)OC4COC5OCCC45)cc23)cs1 (stereo not drawn) [Compound 242],< 0.1 nM,< 0.3 nM,0.22 nM,7 nM,15 nM,27 nM
